A word on the EC50: it is the midpoint of the concentration-response curve.

Like-named read-outs stand apart in the source and are kept apart here. Where a SMILES comes first, the peptide text is derived from it. Bridges are numbered along the chain shown (N, C = ends).

The test system of one test is apElevR2. As to the kind of experiment: IP1 accumulation assay, apElevR2 in CHO-K1 cells. The test is classed as cell-based, Aplysia californica. The following applies: for EC50 / apElevR2 Log[EC50] (M): IP1 accumulation, NA = no activation; for apElevR2 Log[EC50] (M): logarithm of molar EC50, CHO-K1 transiently expressing apElevR2 (pcDNA3.1(+)), no Gα16 co-transfection, peptide 10^-12 to 10^-4 M, 1 h incubation, mean ± SEM, n = 3, SEM. From the text:
(§1) To determine whether the Aplysia elevenin can activate the putative elevenin receptors, we cloned apElevRs to pcDNA3.1 (+) plasmid and transfected the three apElevRs in CHO-K1 cells. We used an IP1 accumulation assay to measure the concentration of IP1, which is a by-product in the Gαq signaling pathway, to provide evidence for the activation of receptors by elevenin. […] Initially, we used the elevenin peptide at two concentrations of 10^–11 M and 10^–4 M to screen apElevR1, apElevR2, and apElevR3. […] Further, we used different concentration gradients of elevenin, ranging from 10^–12 to 10^–4 M, to generate the dose–response curves (Fig. 8B–E).
(§2) Gαq-coupled GPCRs stimulate PLC-β activity, resulting in increased cellular D-Myo-Inositol 1-Phosphate (IP1). When the G protein-coupled receptor (GPCR) expressed in CHO-K1 cells (Procell, CL-0062) is activated, it is generated by the Gαq pathway through the appropriate ligand, and IP3 is formed which is degraded to IP1. Therefore, IP1 can be used as an alternative to IP3. First, the putative receptor cloned into the mammalian expression vector pcDNA3.1( +) of Aplysia was transiently expressed in CHO-K1 cells. CHO-K1 cells were cultured in F-12 K medium (Gibco, 21,127–022) containing 10% fetal bovine serum (Genial, G11-70,500) at 37 °C and 5% CO2. When the cell density in the 6-well plate reached 70–90%, 1.5 μg of putative receptor plasmid [in pcDNA3.1( +)] was mixed with 200 μl buffer (Polyplus) in a 1.5 ml EP tube and incubated at room temperature for 10 min. The DNA/Transfection reagent (Polyplus) mixture was then added dropwise to the 6-well plate, mixed gently, and the cells were incubated overnight at 37 °C and 5% CO2. The next day, cells were digested, counted, diluted to a density of 40,0000 cells/ml, and replated in a white 384-well assay plate (Greiner bio-one, B14061RI), each well inoculated with the diluted liquid 50 μl and incubate overnight at 37 °C in 5% CO2. On the third day, the CHO cells were incubated for 1 h after adding peptide. The activation of putative receptors was detected by monitoring IP1 accumulation using the IP1 detection kit in Tecan Spark (Cisbio, 62IPAPEB). All procedures were performed according to the manufacturer's instructions for the IP1 assay kit. The elevenin peptide and analogs were synthesized by Sangon Biotech or Guoping Pharmaceutical (Supplementary Fig. 4) and were aliquoted in 50 nmol EP tubes and stored at -20 °C until use.
(§3) Dose–response curves and bar graphs for experimental data were plotted using Prism software (GraphPad). Data are expressed as the mean ± SEM. Final EC50 values are rounded to two significant figures. All experimental data were taken from individual animals or preparations, and n refers to the number of preparations. Data were considered significant when P < 0.05. Statistical tests were performed using Prism software. They included Student’s t-test (two groups) and one-way ANOVA (three or more groups).

A further test deals with apElevR1. The test is described as follows: IP1 accumulation assay, apElevR1 in CHO-K1 cells. It counts as cell-based, Aplysia californica. The following applies: for apElevR1 Log[EC50] (M): logarithm of molar EC50, IP1 accumulation, CHO-K1 transiently expressing apElevR1 (pcDNA3.1(+)), no Gα16 co-transfection, peptide 10^-12 to 10^-4 M, 1 h incubation, mean ± SEM, n = 3, NA = no activation, SEM.
From the text: as §1, §2, §3

The next test deals with apElevR3. The test is described as follows: IP1 accumulation assay, apElevR3 in CHO-K1 cells. The test is classed as cell-based, Aplysia californica. The following applies: for apElevR3 Log[EC50] (M): logarithm of molar EC50, IP1 accumulation, CHO-K1 transiently expressing apElevR3 (pcDNA3.1(+)), no Gα16 co-transfection, peptide 10^-12 to 10^-4 M, 1 h incubation, mean ± SEM, n = 3, NA = no activation, SEM.
From the text: as §1, §2, §3

Test [1] addresses elevenin receptor (second of two listed). The following applies: CHO cells, Ca2+ response, no Gα16, cited from earlier work. From the text:
(§4) Although the function of elevenin was first studied in C.elegans, its actual elevenin receptors have not yet been found in this species. In fact, prior to our work, there are a total of 6 elevenin receptors that have been described (Fig. 7). First, there are two GPCRs that have been deorphanized as elevenin receptors in both annelid Platynereis and arthropod Ixodes[2],[9]^. There is a single elevenin receptor in Nilaparvata lugens or Bombus terrestris[23] although we could not find the sequence for Nilaparvata NlA42 in NCBI. Second, in annelid Platynereis, the EC50 values of two elevenin recep ...

Test [2] addresses elevenin receptor (first of two listed). The following applies: CHO cells, Ca2+ response, no Gα16, cited from earlier work.
From the text: as §4

The subject of another test is AstC-R. The following applies: peptide could activate AstC-R; cited from earlier work. The text has this:
It is notable that there are 6 residu ...

[3] abbreviates: screen at 10^-4 M compared with 10^-11 M peptide, CHO-K1, n = 3, Student's t-test (Fig. 8A).
The mark [4] stands for this setting: CHO-K1 transiently expressing apElevR2, no Gα16, 1 h peptide incubation, average of n = 3, rounded to two significant figures, read-out: apElevR2 [EC50].

For the compound `CC[C@H](C)[C@H](NC(=O)[C@H](CCCNC(=N)N)NC(=O)[C@@H]1CCCN1C(=O)[C@@H](N)CCCNC(=N)N)C(=O)N[C@@H](CC(=O)O)C(=O)N[C@H]1CSSC[C@@H](C(=O)N[C@@H](CCCNC(=N)N)C(=O)NCC(=O)N[C@H](C(=O)N[C@@H](CO)C(=O)N[C@@H](C)C(=O)O)C(C)C)NC(=O)[C@H](C)NC(=O)[C@H](C)NC(=O)[C@H](C)NC(=O)[C@H](Cc2ccccc2)NC(=O)[C@H](C(C)C)NC(=O)[C@H](Cc2ccccc2)NC(=O)[C@H](CCCNC(=N)N)NC(=O)[C@H]([C@@H](C)O)NC1=O` [[Ala^13]Elevenin] (H-RPRIDCTRFVFAAACRGVSA-OH; disulfide 6-15; N-terminus and C-terminus assumed), the half-maximal effective concentration (EC50) in the test with apElevR2 (Table 2 prints no unit, the same values are in nM in Fig. 9J, CHO-K1, n = 3, read-out: EC50 values on apElevR2 (Table 2)) is above 10000 nM. In addition, the “apElevR2 Log[EC50] (M)” value in the test on apElevR2 is -4.48±0.21 M. In the test with apElevR1, the “apElevR1 Log[EC50] (M)” value was -6.92±0.13 M. Also, the “apElevR3 Log[EC50] (M)” value in the test with apElevR3 was -6.42±0.34 M.
As to “PDCTRFVFHPSCRGVAA [Platynereis elevenin, elevenin of annelid Platynereis dumerilii, ligand of its two elevenin receptors (literature)]”, the EC50 is 1.3 nM in test [1] (Platynereis) and 62 nM in test [2] (Platynereis).
As to `CC[C@H](C)[C@H](NC(=O)[C@H](CCCNC(=N)N)NC(=O)[C@@H]1CCCN1C(=O)[C@@H](N)CCCNC(=N)N)C(=O)N[C@@H](CC(=O)O)C(=O)N[C@H]1CSSC[C@@H](C(=O)N[C@@H](CCCNC(=N)N)C(=O)NCC(=O)N[C@H](C(=O)N[C@@H](CO)C(=O)N[C@@H](C)C(=O)O)C(C)C)NC(=O)[C@H](C)NC(=O)[C@@H]2CCCN2C(=O)[C@H](C)NC(=O)[C@H](Cc2ccccc2)NC(=O)[C@H](C(C)C)NC(=O)[C@H](Cc2ccccc2)NC(=O)[C@H](CCCNC(=N)N)NC(=O)[C@H]([C@@H](C)O)NC1=O` [Elevenin] (H-RPRIDCTRFVFAPACRGVSA-OH; disulfide 6-15; N-terminus and C-terminus assumed), in the test with apElevR2, the “apElevR2 Log[EC50] (M)” value was -8.93±0.34 M. For the same compound, the “Activation of apElevR2 in screening (IP1), in words” value in the test with apElevR2 (setting [3]) was “could not activate”. The “apElevR1 Log[EC50] (M)” value in the test with apElevR1 is -7.60±0.40 M. Moreover, the “Activation of apElevR1 in screening (IP1), in words” value with apElevR1 (setting [3]) is on record as “could not activate”. Besides, the “apElevR3 Log[EC50] (M)” value in the test on apElevR3 is -8.51±0.37 M. The “Activation of apElevR3 in screening (IP1), in words” value with apElevR3 (setting [3]) is on record as “could not activate”.
As to “LDCRKYPFYYRCRGISA [Ixodes elevenin, elevenin of arthropod Ixodes scapularis, ligand of its two elevenin receptors (literature)]”, the results for the EC50 in test [1] (Ixodes) and in test [2] (Ixodes) were 5.59 nM and 0.01 nM, respectively.
With “AstC without a disulfide bond: Aplysia allatostatin-C (SHYSSMCMFNVVACY) without a disulfide bond (no disulfide bond)”, the “EC50 value on AstC-R compared to AstC with the disulfide bond, in words” value in the test on AstC-R is on record as “significantly higher”.
For the compound `CC(C)[C@@H]1NC(=O)[C@H](Cc2ccccc2)NC(=O)[C@H](CCCNC(=N)N)NC(=O)[C@H]([C@@H](C)O)NC(=O)[C@@H](NC(=O)[C@@H](N)CC(=O)O)CSSC[C@@H](C(=O)N[C@@H](CCCNC(=N)N)C(=O)NCC(=O)O)NC(=O)[C@H](C)NC(=O)[C@@H]2CCCN2C(=O)[C@H](C)NC(=O)[C@H](Cc2ccccc2)NC1=O` [Elevenin5-17] (H-DCTRFVFAPACRG-OH; disulfide 2-11; N-terminus and C-terminus assumed), the EC50 in the test with apElevR2 (setting [4]) is above 10000 nM. Also, the “apElevR2 Log[EC50] (M)” value with apElevR2 is listed as -4.31±0.65 M. For the same compound, the “apElevR1 Log[EC50] (M)” value with apElevR1 is given as -5.11±0.28 M. In the test on apElevR3, the “apElevR3 Log[EC50] (M)” value is recorded as -5.52±0.18 M.
For the compound `CC(C)[C@@H]1NC(=O)[C@H](Cc2ccccc2)NC(=O)[C@H](CCCNC(=N)N)NC(=O)[C@H]([C@@H](C)O)NC(=O)[C@@H](N)CSSC[C@@H](C(=O)O)NC(=O)[C@H](C)NC(=O)[C@@H]2CCCN2C(=O)[C@H](C)NC(=O)[C@H](Cc2ccccc2)NC1=O` [Elevenin6-15] (H-CTRFVFAPAC-OH; disulfide 1-10), the EC50 with apElevR2 (setting [4]) was above 10000 nM. The “Effect on apElevR1 (IP1 dose-response), in words” value with apElevR1 (dose-response, CHO-K1, n = 3 (Fig. 10A, G)) was “did not have any effect”. Moreover, the “apElevR3 Log[EC50] (M)” value with apElevR3 was -5.20±0.36 M.
As to `CC[C@H](C)[C@H](NC(=O)[C@H](CCCNC(=N)N)NC(=O)[C@@H]1CCCN1C(=O)[C@@H](N)CCCNC(=N)N)C(=O)N[C@@H](CC(=O)O)C(=O)N[C@H]1CSSC[C@@H](C(=O)N[C@@H](CCCNC(=N)N)C(=O)NCC(=O)N[C@H](C(=O)N[C@@H](CO)C(=O)N[C@@H](C)C(=O)O)C(C)C)NC(=O)[C@H](C)NC(=O)[C@@H]2CCCN2C(=O)[C@H](C)NC(=O)[C@H](C)NC(=O)[C@H](C(C)C)NC(=O)[C@H](Cc2ccccc2)NC(=O)[C@H](CCCNC(=N)N)NC(=O)[C@H]([C@@H](C)O)NC1=O` [[Ala^11]Elevenin] (H-RPRIDCTRFVAAPACRGVSA-OH; disulfide 6-15; N-terminus and C-terminus assumed), in the test on apElevR2, the “apElevR2 Log[EC50] (M)” value is reported as -6.62±0.10 M. Besides, the “apElevR1 Log[EC50] (M)” value in the test on apElevR1 was -6.97 ±0.20 M. The “apElevR3 Log[EC50] (M)” value in the test with apElevR3 was -6.55±0.21 M.

The values are drawn from publication PMC10175484, “Identification of three elevenin receptors and roles of elevenin disulfide bond and residues in receptor activation in Aplysia californica” (Scientific Reports, 2023).
